One data set has as its system P. aeruginosa. Kind of data set: Minimum inhibitory concentration (MIC) in Mueller-Hinton broth, pH 7.4. Format: cell-based, Pseudomonas aeruginosa. Further details: Minimum inhibitory concentration: unit not given here. Conditions: for Minimum inhibitory concentration: Table 2, ATCC 9027. The method, then:
(§1) This example illustrates the preparation of testing parameters for antimicrobial activity of components of the inventive composition and related compositions for comparison. […] Microbes were grown on Mueller-Hinton agar (MHA, Sigma-Aldrich, St. Louis, Mo.) for 7 days until heavy sporulation was present. Spores from two agar plates were captured in sterile phosphate-buffered saline (PBS) using a sterile swab. Spores were enumerated by serial dilution in Dey-Engley neutralizing broth (DEB; Sigma-Aldrich) and spread plating on MHA. A typical spore stock was determined to contain ˜2×10^7 spores/mL. Bacteria were grown in MH broth for 24 h at 37° C., enumerated by plating, and diluted to the desired concentration as indicated.
(§2) To assess the antimicrobial activity of hydroxamic acids and derivatives, the inhibitory properties of commercially available hydroxylamines and hydroxamic acids were compared to their alcohol and carboxylic acid analogues diluted in Mueller-Hinton broth at pH 7.4 (Table 1).
Guanylhydrazones 7 and 8, which represent a class of broad-spectrum antimicrobials, alone and in combination with hydroxamic acids were evaluated.

A further data set relates to A. brasiliensis. The data set is described as above. Further details: Minimum inhibitory concentration: unit not given here. The note with it: for Minimum inhibitory concentration: Table 2. The format is cell-based, Aspergillus brasiliensis. The method, then:
as §1, §2

For data set [1], the system named is Aspergillus brasiliensis ATCC 16404. The data set is described as follows: Fungicidal activity in ionic surfactant hand wash / foamy hand soap base formula (HW). The format is cell-based. Conditions: pH 7.0; for Log reduction Week 1 / Log reduction Week 2: 1 × 10^6 CFU/mL, 25° C. The method, then:
as §1
All test formulas were adjusted to the desired pH using citric acid and/or NaOH. […] All tubes were kept at room temperature (˜21-22° C.) for 3 weeks. About 100 μL of each inoculated foamy hand soap mixture was diluted 1:10 in DEB and 100 μL of this dilution was spread plated on MHA at several time points (e.g. 3 d, 7 d, 13 d, 18 d, and 20 d). Plates were incubated at room temperature for 3-5 days for mold (1-2 days for bacteria) and colonies enumerated.
The preservative activity of a hydroxamic acid/guanylhydrazone combination was compared to other antimicrobial mixtures in an ionic surfactant-containing formula. […] The fungicidal properties of a mixture of benzhydroxamic acid and guanylhydrazone (1+7) was compared to commercial antimicrobials representing different functional classes (Table 3).

Data set [2] relates to Pseudomonas aeruginosa ATCC 9027. The data set is described as follows: Bactericidal activity in ionic surfactant hand wash / foamy hand soap base formula (HW). Format: cell-based. Conditions: pH 7.0; for Day 3 Log Reduction / Day 10 Log Reduction: HW, 1 × 10^6 CFU/ml, 37° C.; for CFU/mL after 7 d contact time: hand soap formula. The method, then:
This example illustrates the preparation of testing parameters for antimicrobial activity of components of the inventive composition and related compositions for comparison. […] Mold were grown and minimum inhibitory tests performed as previously reported (see e.g., Buckley, H. L. et al. ACS Sustain. Chem. Eng. 5, 4320-4331, 2017). Microbes were grown on Mueller-Hinton agar (MHA, Sigma-Aldrich, St. Louis, Mo.) for 7 days until heavy sporulation was present. Spores from two agar plates were captured in sterile phosphate-buffered saline (PBS) using a sterile swab. Spores were enumerated by serial dilution in Dey-Engley neutralizing broth (DEB; Sigma-Aldrich) and spread plating on MHA. A typical spore stock was determined to contain ˜2×10^7 spores/mL. Bacteria were grown in MH broth for 24 h at 37° C., enumerated by plating, and diluted to the desired concentration as indicated.
To test the various compounds, a foamy hand soap base formula was made with sodium lauryl sulfate (SLS, 2.4% w/w; Sulfochem SLS-PHP [30% active], The Lubrizol Corporation, Wickliffe, Ohio) and cocoamidopropyl betaine (CAPB, 1.2% w/w; Mackam 35 [30% active], Solvay S.A, Brussels, Belgium) in deionized water and sterilized by filtration (0.22 μm, PVDF; VWR, Radnor, Pa.). All test formulas were adjusted to the desired pH using citric acid and/or NaOH. All tubes were inoculated with 250 μL of spore inoculum (described above) to a total volume of 5 mL, for a final spore concentration of ˜1×10^6 spores/mL in each tube. […] About 100 μL of each inoculated foamy hand soap mixture was diluted 1:10 in DEB and 100 μL of this dilution was spread plated on MHA at several time points (e.g. 3 d, 7 d, 13 d, 18 d, and 20 d). Plates were incubated at room temperature for 3-5 days for mold (1-2 days for bacteria) and colonies enumerated.

Data set [3] is described as follows: Dissolution / compatibility in water (observation). The format is physicochemical. The method, then: Several aryl derivatives of benzhydroxamic acid were also tested.
The subject of a further data set is A. brasiliensis 16404. Kind of data set: USP-51 preservative challenge test of anionic, amphoteric surfactant-containing hand wash. Conditions: HW pH 6; formulas: 0.4% 7; 0.5% CHA; 0.2% 7 + 0.5% CHA. The format is cell-based, Aspergillus brasiliensis. How it is done: (§3) Preservative challenge testing (USP-51).
(§4) This example illustrates the surprising synergistic antimicrobial activity of the inventive composition and related compositions for comparison tested on two of the most persistent microorganisms tested in the USP 51 protocol: A. brasiliensis (ATCC No. 16404) and P. aeruginosa (ATCC NO. 9027). The effect of pH on antifungal properties of a HW formula containing 0.4% 7 and 0.5% CHA, alone and in combination, was then evaluated under a high fungal load (10^7 CFU/mL). […] Without intending to be bound by theory, it was suspected that the poor performance of the combination at neutral pH results from the milder conditions of this formula, which is more encouraging to mold growth.

Data set [4] has as its system Aspergillus brasiliensis ATCC 16404. Kind of data set: Effect of pH on antifungal properties of HW formula under high fungal load. The format is cell-based. The note with it: 10^7 CFU/mL, pH 5.5-9.5.
Description: FIG. 1 illustrates the fungicidal properties of a handwash formula containing the inventive composition as further explained in the examples below. The Y axis presents the log reduction of cell forming units per mL (CFU/mL). The X axis presents the pH of the different formulas. Data for benzaldehyde guanylhydrazone 7+CHA is shown with black lines (BGH+CHA); data for benzaldehyde guanylhydrazone 7 (BGH) is shown with dotted lines; data for CHA alone is shown with grey lines.
as §4

In a further data set the test system is S. aureus. Kind of data set: Minimum inhibitory concentration (MIC) in Mueller-Hinton broth, pH 7.4. Format: cell-based, Staphylococcus aureus. The method, then: as §1, §2
The test system of a further data set is E. coli. The data set is described as above. The format is cell-based, Escherichia coli. How it is done: as §1, §2
The test system of a further data set is C. albicans. Described as above. The format is cell-based, Candida albicans. The method, then: as §1, §2
A further data set relates to mold. The data set is described as follows: USP <51> preservative efficacy in nonionic spray cleaner base (mold). The format is cell-based, A. brasiliensis. The note with it: alone, 0.1% in spray cleaner base.
Description: as §3

A further data set has as its system P. aeruginosa ATCC 9027. Kind of data set: Tile surface disinfectant test (adapted from ASTM E1153). The format is cell-based, Pseudomonas aeruginosa. The note with it: 200 ppm; 4×10^6 CFU/mL; sprayed ceramic tile. How it is done: Tile surface disinfectant tests. Surface sanitation tests were adapted from ASTM Test Method E1153. Test bacteria (Escherichia coli ATCC 15597 and Pseudomonas aeruginosa ATCC 9027; American Type Culture Collection, Manassas, Va.) were streaked from frozen stock culture onto Mueller-Hinton agar (MHA; Sigma-Aldrich, St Louis, Mo.) and incubated at 30-37° C. for 2-4 days to produce isolated colonies. Two to three representative colonies were picked and transferred to 10 mL Mueller-Hinton broth (MHB; Sigma) and incubated at 37° C. overnight. Cultures underwent a maximum of 3 passes to fresh broth before being incubated for 48 h at 37° C. to be used as the inoculum. Sterile, glazed 2×2-inch ceramic tiles were inoculated with 100 μL of 48 h culture and allowed to dry for <1 h. Spray sanitizer solutions were prepared by mixing the test compound (5) in deionized, filtered water. Benzalkonium chloride (≥95%, Sigma) or bleach solution was used as a positive control and deionized, filtered water was used as a negative control. Solutions were transferred to 250 mL spray bottles, previously checked for spray volume consistency. For each treatment, tiles were sprayed 3 times. At the designated contact time, 15 mL of Dey-Engley broth (DEB; Sigma) was poured onto the tiles. Tiles were briskly swirled 50 times with DEB to neutralize antimicrobial agents and recover bacteria. This procedure was followed in duplicate for each treatment and contact time. The sanitizer-DEB solutions were then serially diluted in phosphate-buffered saline and plated on MHA. MHA plates were incubated at 37° C. for 18-24 h and colonies enumerated. To determine log reduction, bacteria recovered from treated tiles were compared to bacteria recovered from 2-3 replicate inoculated, untreated tiles.

Setting [5] is: hand soap formula, 0.3 wt % 8 alone, minimum detection limit 5.0 × 10^1.
Where [6] appears, read: HW, substance alone 0.5%, high loading 10^7 CFU/mL.

The text below walks through data of patent publication US11723362B2, “Broad-spectrum synergistic antimicrobial compositions” (The United States of America, as represented by the …, priority 2019, dated 2023).

For the molecule `CCCCc1ccc(C(=O)NO)cc1` [4-n-butylbenzhydroxamic acid 6, 4-n-butylbenzhydroxamic acid], the Minimum inhibitory concentration in the data set with P. aeruginosa came out at 0.1. Also, the Minimum inhibitory concentration with A. brasiliensis is listed as 0.008. Besides, in [1] (HW, 0.4 wt %), the “Log reduction Week 1” value amounted to 4 Log and the “Log reduction Week 2” value was “none”. Further, in data set [2] (substance alone 0.4%), the “Day 3 Log Reduction” value was 0 Log and the “Day 10 Log Reduction” value was found to be 0 Log.

`CCCCCCCCc1ccc(C=NNC(=N)N)cc1` [4-n-octylbenzaldehyde guanylhydrazone 8, 4-n-octylbenzaldehyde guanylhydrazone]: the Minimum inhibitory concentration in the data set on A. brasiliensis is on record as 0.002. The “CFU/mL after 7 d contact time” value in data set [1] (hand soap formula, 0.2 wt % 8 alone) is listed as >2 × 10^4 CFU/mL. In data set [1] (setting [5]), the “CFU/mL, incubation time 3 d” value is recorded as >2.5 × 10^4 CFU/mL; the “CFU/mL, incubation time 7 d” value is >2.5 × 10^4 CFU/mL; the “CFU/mL, incubation time 13 d” value is reported as >2.5 × 10^4 CFU/mL; the “CFU/mL, incubation time 18 d” value is recorded as >2.5 × 10^4 CFU/mL. In data set [1] (setting [5]), the “CFU/mL, incubation time 20 d” value is reported as >2.5 × 10^4 CFU/mL. In addition, in [2] (0.2 wt % 8 alone), the “CFU/mL after 7 d contact time” value is reported as >2 × 10^4 CFU/mL. The compatibility in water result in [3] (sample preparation for extended preservative test) is “not compatible in water”.

For the molecule `N=C(N)NN=Cc1ccccc1` [Benzaldehyde guanylhydrazone 7, Benzaldehyde guanylhydrazone], in the data set with P. aeruginosa, the Minimum inhibitory concentration was 0.06. Moreover, the “Log reduction Week 2” value in [1] (HW, 0.4 wt %) is listed as “none”. Further, in [2] (substance alone 0.1%), the “Day 3 Log Reduction” value turned out to be 4 Log and the “Day 10 Log Reduction” value stood at 4 Log. In addition, in the data set with A. brasiliensis 16404, the “Log10 Reduction, Day 6” value amounted to 0.35 Log10. In addition, the “antifungal performance over the pH range” value in data set [4] (HW with 0.4% 7 alone) is “poor performance, except at high pH”.

As to `O=C(NO)c1ccccc1` [Benzhydroxamic acid 1, Benzhydroxamic acid], the MIC in the data set with S. aureus turned out to be 0.06 wt %; in the data set on P. aeruginosa, 0.1 wt %; against A. brasiliensis, 0.02 wt %; in the data set with E. coli, 0.5 wt %; in the data set with C. albicans it was 0.03 wt %. The values for the Minimum inhibitory concentration in the data set on P. aeruginosa and with A. brasiliensis were 0.1 and 0.02, respectively. In data set [1] (HW, 0.5 wt %), the “Log reduction Week 1” value was 1 Log. In addition, the “Log reduction Week 2 (day 12)” value in data set [1] (HW, 0.5 wt %, day 12) stood at 4 Log. Moreover, the “Log Reduction Day 5” value in data set [1] (setting [6]) is reported as 1 Log. The “Log Reduction Day 12” value in [1] (setting [6]) is recorded as 4 Log. The “CFU/mL after 7 d contact time” value in data set [1] (hand soap formula, 0.4% 1 alone) was 1 × 10^3 CFU/mL; in data set [2] (0.4% 1 alone), 2 × 10^4 CFU/mL.

With `CCCCCCCC(=O)NO` [Caprylhydroxamic acid (CHA), Caprylhydroxamic acid], the MIC stood at 0.2 wt % with S. aureus; 0.5 wt % in the data set on P. aeruginosa; 0.03 wt % in the data set on A. brasiliensis; 0.1 wt % in the data set on E. coli; 0.03 wt % against C. albicans. Moreover, the Minimum inhibitory concentration in the data set with P. aeruginosa stood at 0.5; in the data set on A. brasiliensis it was 0.03. Also, in the data set on A. brasiliensis 16404, the “Log10 Reduction, Day 6” value amounted to 2.24 Log10. The “log reduction over the entire pH range” value in data set [4] (HW with 0.5% CHA alone, plated six days after inoculation) is reported as 0-1 log. Moreover, the dissolution behaviour result in [3] (solubilizing for testing, room temperature) is “required heating and stirring to solubilize”.

With `O=C([O-])c1ccccc1.[Na+]` [Sodium benzoate, sodium benzoate], the “log reduction of mold (not eliminated to nondetectable levels)” value in the data set with mold was less than 2 log.

Turning to `OCl` [sodium hypochlorite], in the data set on P. aeruginosa ATCC 9027, the “reduction at 15 seconds” value was 97.44%, the “reduction at 5 min” value is recorded as greater than 99.998% and the “reduction at 10 min” value is greater than 99.998%.
